Laboratory results: patent publication EP0257454A1, “Oil-in-water type fat emulsion of 1-[2-(2,4-dichlorophenyl)-3-methyl-1-pentenyl]-1H-imidazole” (MORISHITA PHARMACEUTICAL CO. LTD., priority 1986, dated 1988)

System: Candida albicans (clinically isolated strain)
Assay: Activity against Candida albicans infection in mice (survival days)
Assay type: in vivo
Details: Mice infected with Candida albicans, tail vein injection; summary of Table 1
Protocol: Activity against Candia albicans: Male CRJ:ICR mice (5 week age, 10 mice per group) were used. The fat emulsion obtained in Example 1; an injection solution (HCO 60 preparation) wherein the compound [I] was dissolved in a concentration of 2 % (w/v) in an aqueous solution of 10 % (w/v) of polyoxyethylene hydrogenated castor oil and 5 % (w/v) of glucose; and a solvent for the HCO 60 preparation (i.e. an aqueous solution of 10 % (w/v) of polyoxyethylene hydrogenated castor oil and 5 % (w/v) of glucose (as a control) The test mice was infected with Candida albicans (clinically isolated strain) by injecting the microorganism in an amount of 5 x 10^6 cells/mouse through the tail vein. One hour after the infection, the test injection products were each injected through the tail vein, and the survival days of mice were measured. The evaluation of effect was calculated by the following formula: Average survival days in each test group T/C = x 100 Average survival days in control group

Question: With `CCC(C)C(=Cn1ccnc1)c1ccc(Cl)cc1Cl` (stereo not shown) [compound [I], 1-[2-(2,4-dichlorophenyl)-3-methyl-1-pentenyl]-1H-imidazole] as the molecule, how does the “effect against the infection (in words)” value read?
Answer: Its value is “remarkedly excellent effect against the infection”.
